Test results: patent US9820943B2, “Micronized amoxicillin” (DSM SINOCHEM PHARMACEUTICALS NETHERLANDS B.V., priority 2013, dated 2017)

What was measured:
Assay type in all cases: physicochemical
[1] = Specific powder surface area by nitrogen gas sorption (BET); conditions: triplicate, trihydrate
Experimental: Specific powder surface area was determined using nitrogen gas sorption (Smartsorb, Smart Instruments, Mumbai, India). Prior to measurements, samples were regenerated by degassing to remove moisture and contamination. The regenerated sample was dipped in liquid nitrogen and the quantity of the adsorbed gas was measured using a thermal conductivity detector and subsequently integrated using an electronic circuit in terms of counts. The instrument was calibrated by injecting a known quantity of nitrogen. The measured parameters were subsequently used to calculate the surface area of the sample by employing the adsorption theories of Brunauer, Emmett and Teller (BET).
(§1) Parameters operated were: • Augar Speed: 5-90 rpm • Primary Air Pressure: 2-8 kg·cm^−2 • Secondary Air Pressure: 4-10 kg·cm^−2 The surface area (in triplicate), average particle size and contact angle (in quadruplicate) were determined as outlined in the General section. The purity of the amoxicillin trihydrate samples was 99.4±0.3% and were void of dichloromethane, isopropanol, pivalic acid and triethyl amine.

[2] = Particle size distribution by laser diffraction (Malvern); conditions: trihydrate
Experimental: Particle size distribution values D10, D50, D90 and D100 were determined using laser diffraction applying Malvern equipment. A suitable apparatus for determining D10, D50, D90 and D100 is a Malvern particle sizer 2600 C or a Malvern Zeta Sizer.
as §1

[3] = Contact angle by sessile drop method (water); conditions: ambient conditions, trihydrate
Experimental: Contact angles of amoxicillin trihydrate powder samples were measured by the sessile drop method using an Drop Shape Analyzer instrument (FTA 1000, First Ten Angstrom, Virginia, USA). Powder samples were mounted on double sided adhesive tape adhered to a glass slide and excess powder was removed by tapping the slide. A drop of probe liquid (water) was dispersed onto the sample surface and video images were captured by the FTA image analyzer. The contact angle was calculated by the instrument by fitting a mathematical expression to the shape of the drop followed by calculating the slope of the tangent to the drop at the liquid-solid-vapor interface line. The surface tension of ultrapure ELGA laboratory water was measured to be 73±0.5 mN·m^−1 at 25° C. All measurements were performed in air under ambient conditions and an average of four measurements was reported in the below Examples.
as §1

[4] = Powder dissolution, USP/NF paddle method with HPLC analysis; conditions: 500 mg in 900 mL water, 37 °C, 75 rpm; for Amoxicillin released in solution Mean: mean of 3; for Amoxicillin released in solution #1: replicate #1; for Amoxicillin released in solution #2: replicate #2; for Amoxicillin released in solution #3: replicate #3
Experimental: Dissolution analysis of amoxicillin trihydrate powder samples was carried out using the USP/NF paddle method at a rotational speed of 75 rpm. Ultrapure ELGA laboratory water (900 mL) was used as dissolution medium. Media were equilibrated to 37.0±0.5° C. prior to dissolution. Amoxicillin trihydrate sample powder (500 mg) was directly added to the dissolution apparatus (Electrolab USP-24, India). Samples were collected at 0, 1, 3, 5, 10, 15, 30, 60 and 90 min, filtered through 0.2 μm filters and analyzed by HPLC. Dissolution profiles were constructed by plotting the percentage amoxicillin released against time.
The HPLC system (Shimadzu Corporation, Kyoto, Japan) comprised of an SCL-10A VP system controller, LC-10AT VP liquid chromatograph, FCV-10AL VP flow control valve, DGU-14A degasser, SIL-10AD VP auto-injector, CTO-10AS VP column oven, SPD-M20A prominence diode array (PDA) detector and data acquisition Class-VP 6.10 software. The HPLC method was adopted from the United States Pharmacopoeia (USP). The method was validated for linearity, precision, accuracy and intra- and inter-day variability. The mobile phase was 50 mM monobasic potassium phosphate:methanol (96:4, v/v, pH 5.0). All analyses were carried out using Lichrospher® 100 RP-18e analytical column (5 μm, Merck KGaA, Darmstadt, Germany) under isocratic conditions at a flow rate of 1.0 mL·min^−1 at 25° C. with 20 μL injection volume. Effluent was monitored at a wavelength of 230 nm. Samples for calibration curve generation were prepared in 50 mM monobasic potassium phosphate:methanol 1:1 (v/v) proportion at a concentration range of 1 to 600 μg·mL^−1.
The three non-micronized (i.e. entries 1-3 of Table 1) and micronized (i.e. entries 4-6 of Table 1) amoxicillin trihydrate samples of Example 1 were subjected to a powder dissolution test (in triplicate) as outlined in the General section.

CC1(C)S[C@@H]2[C@H](NC(=O)[C@H](N)c3ccc(O)cc3)C(=O)N2[C@H]1C(=O)O.O.O.O [entry 2, amoxicillin trihydrate]
Surface Area Mean ± SD (n = 3) [1]: 0.69 ± 0.03 m^2 · g^−1
Average Particle Size D10 [2]: 13.5 μm
Average Particle Size D50 [2]: 40.6 μm
Average Particle Size D90 [2]: 94.3 μm
Average Particle Size D100 [2]: 237.5 μm
Contact Angle Mean ± SD (n = 4) [3]: 67.70 ± 1.39
Amoxicillin released in solution Mean ([4]; 0 min): 0%
Amoxicillin released in solution #1 ([4]; 0 min): 0%
Amoxicillin released in solution #2 ([4]; 0 min): 0%
Amoxicillin released in solution #3 ([4]; 0 min): 0%
Amoxicillin released in solution Mean ([4]; 1 min, trihydrate): 61.71%
Amoxicillin released in solution #1 ([4]; 1 min, trihydrate): 61.68%
Amoxicillin released in solution #2 ([4]; 1 min, trihydrate): 61.21%
Amoxicillin released in solution #3 ([4]; 1 min, trihydrate): 62.23%
Amoxicillin released in solution Mean ([4]; 3 min, trihydrate): 99.69%
Amoxicillin released in solution #1 ([4]; 3 min, trihydrate): 99.58%
Amoxicillin released in solution #2 ([4]; 3 min, trihydrate): 99.88%
Amoxicillin released in solution #3 ([4]; 3 min, trihydrate): 99.60%
Amoxicillin released in solution Mean ([4]; 5 min, trihydrate): 98.99%
Amoxicillin released in solution #1 ([4]; 5 min, trihydrate): 99.89%
Amoxicillin released in solution #2 ([4]; 5 min, trihydrate): 99.79%
Amoxicillin released in solution #3 ([4]; 5 min, trihydrate): 97.29%
Amoxicillin released in solution Mean ([4]; 10 min, trihydrate): 99.66%
Amoxicillin released in solution #1 ([4]; 10 min, trihydrate): 99.66%
Amoxicillin released in solution #2 ([4]; 10 min, trihydrate): 98.95%
Amoxicillin released in solution #3 ([4]; 10 min, trihydrate): 100.36%
Amoxicillin released in solution Mean ([4]; 15 min, trihydrate): 99.43%
Amoxicillin released in solution #1 ([4]; 15 min, trihydrate): 99.51%
Amoxicillin released in solution #2 ([4]; 15 min, trihydrate): 98.98%
Amoxicillin released in solution #3 ([4]; 15 min, trihydrate): 99.80%
Amoxicillin released in solution Mean ([4]; 30 min, trihydrate): 99.33%
Amoxicillin released in solution #1 ([4]; 30 min, trihydrate): 99.65%
Amoxicillin released in solution #2 ([4]; 30 min, trihydrate): 99.00%
Amoxicillin released in solution #3 ([4]; 30 min, trihydrate): 99.34%
Amoxicillin released in solution Mean ([4]; 60 min, trihydrate): 99.45%
Amoxicillin released in solution #1 ([4]; 60 min, trihydrate): 99.56%
Amoxicillin released in solution #2 ([4]; 60 min, trihydrate): 99.17%
Amoxicillin released in solution #3 ([4]; 60 min, trihydrate): 99.60%
Amoxicillin released in solution Mean ([4]; 90 min, trihydrate): 99.15%
Amoxicillin released in solution #1 ([4]; 90 min, trihydrate): 99.24%
Amoxicillin released in solution #2 ([4]; 90 min, trihydrate): 99.24%
Amoxicillin released in solution #3 ([4]; 90 min, trihydrate): 98.96%

CC1(C)S[C@@H]2[C@H](NC(=O)[C@H](N)c3ccc(O)cc3)C(=O)N2[C@H]1C(=O)O.O.O.O [entry 5, amoxicillin trihydrate]
Surface Area Mean ± SD (n = 3) [1]: 2.03 ± 0.15 m^2 · g^−1
Average Particle Size D10 [2]: 1.9 μm
Average Particle Size D50 [2]: 10.0 μm
Average Particle Size D90 [2]: 22.5 μm
Average Particle Size D100 [2]: 44.3 μm
Contact Angle Mean ± SD (n = 4) [3]: 97.89 ± 1.22
Amoxicillin released in solution Mean ([4]; 0 min): 0%
Amoxicillin released in solution #1 ([4]; 0 min): 0%
Amoxicillin released in solution #2 ([4]; 0 min): 0%
Amoxicillin released in solution #3 ([4]; 0 min): 0%
Amoxicillin released in solution Mean ([4]; 1 min, trihydrate): 59.93%
Amoxicillin released in solution #1 ([4]; 1 min, trihydrate): 58.56%
Amoxicillin released in solution #2 ([4]; 1 min, trihydrate): 62.91%
Amoxicillin released in solution #3 ([4]; 1 min, trihydrate): 58.32%
Amoxicillin released in solution Mean ([4]; 3 min, trihydrate): 77.98%
Amoxicillin released in solution #1 ([4]; 3 min, trihydrate): 78.61%
Amoxicillin released in solution #2 ([4]; 3 min, trihydrate): 80.12%
Amoxicillin released in solution #3 ([4]; 3 min, trihydrate): 75.20%
Amoxicillin released in solution Mean ([4]; 5 min, trihydrate): 82.14%
Amoxicillin released in solution #1 ([4]; 5 min, trihydrate): 83.91%
Amoxicillin released in solution #2 ([4]; 5 min, trihydrate): 82.77%
Amoxicillin released in solution #3 ([4]; 5 min, trihydrate): 79.73%
Amoxicillin released in solution Mean ([4]; 10 min, trihydrate): 86.84%
Amoxicillin released in solution #1 ([4]; 10 min, trihydrate): 89.18%
Amoxicillin released in solution #2 ([4]; 10 min, trihydrate): 88.59%
Amoxicillin released in solution #3 ([4]; 10 min, trihydrate): 82.76%
Amoxicillin released in solution Mean ([4]; 15 min, trihydrate): 89.32%
Amoxicillin released in solution #1 ([4]; 15 min, trihydrate): 90.98%
Amoxicillin released in solution #2 ([4]; 15 min, trihydrate): 92.05%
Amoxicillin released in solution #3 ([4]; 15 min, trihydrate): 84.94%
Amoxicillin released in solution Mean ([4]; 30 min, trihydrate): 96.72%
Amoxicillin released in solution #1 ([4]; 30 min, trihydrate): 94.78%
Amoxicillin released in solution #2 ([4]; 30 min, trihydrate): 99.20%
Amoxicillin released in solution #3 ([4]; 30 min, trihydrate): 96.17%
Amoxicillin released in solution Mean ([4]; 60 min, trihydrate): 97.60%
Amoxicillin released in solution #1 ([4]; 60 min, trihydrate): 97.29%
Amoxicillin released in solution #2 ([4]; 60 min, trihydrate): 99.86%
Amoxicillin released in solution #3 ([4]; 60 min, trihydrate): 95.65%
Amoxicillin released in solution Mean ([4]; 90 min, trihydrate): 99.15%
Amoxicillin released in solution #1 ([4]; 90 min, trihydrate): 99.33%
Amoxicillin released in solution #2 ([4]; 90 min, trihydrate): 99.64%
Amoxicillin released in solution #3 ([4]; 90 min, trihydrate): 98.47%
